Source: patent US20240399142A1, “Methods Of Using Alternating Electric Fields And Checkpoint Inhibitors” (NOVOCURE GMBH, priority 2023, published 2024)

Experiment: LUNAR study safety: adverse events per CTCAE version 4.03, safety population
Assay type: in vivo, human
[1] = Grade 3, nervous system disorders
[2] = Grade 3, renal and urinary disorders
[3] = Grade 3, respiratory, thoracic, and mediastinal disorders
[4] = Grade 3, skin and subcutaneous tissue disorders

Experimental: Safety and treatment data were compiled from all patients who received any study therapy and were analyzed according to the actual treatment received. Analyses were performed using SAS software, version 9.4 (SAS Institute).

CC(=O)O[C@@]12CO[C@@H]1C[C@H](O)[C@@]1(C)C(=O)[C@H](O)C3=C(C)[C@@H](OC(=O)[C@H](O)[C@@H](NC(=O)OC(C)(C)C)c4ccccc4)C[C@@](O)([C@@H](OC(=O)c4ccccc4)[C@H]21)C3(C)C [Docetaxel, docetaxel]
1 (1.5) no. (%): Dysphagia (All grades) | Upper respiratory tract infection (All grades) | Alanine aminotransferase increased (Grade 3) | Anemia macrocytic (Grade 3) | Atrial tachycardia (Grade 3) | Bone pain (Grade 3) | Cancer pain (Grade 3) | Cholangitis (Grade 3) | Dehydration (Grade 3) | Drug hypersensitivity (Grade 3) | Forced expiratory volume decreased (Grade 3) | Gastroenteritis norovirus (Grade 3) | Hyperglycemia (Grade 3) | Hypoalbuminemia (Grade 3) | Ileus (Grade 3) | Intestinal dilatation (Grade 3) | Intestinal hemorrhage (Grade 3) | Liver disorder (Grade 3) | Malignant ascites (Grade 3) | Malignant pleural effusion (Grade 3) | Mucosal inflammation (Grade 3) | Muscular weakness (Grade 3) | Myocardial infarction (Grade 3) | Neck pain (Grade 3) | Neutropenia (Grade 3) | Non-cardiac chest pain (Grade 3) | Pancreatic failure (Grade 3) | Peripheral sensory (Grade 3) | Pyopneumothorax (Grade 3) | Refeeding syndrome (Grade 3) | Right ventricular failure (Grade 3) | Sepsis (Grade 3) | Hemiparesis [1] | Neurologic neglect syndrome [1] | Chronic obstructive pulmonary disease [3] | Hemoptysis [3] | Pneumonitis [3] | Pulmonary embolism [3] | Alopecia [4]
15 (22.1) no. (%): Neutropenia (All grades)
11 (16.2) no. (%): Cough (All grades) | Decreased appetite (All grades) | Pneumonia (All grades)
12 (17.6) no. (%): Diarrhea (All grades)
2 (2.9) no. (%): Rash (All grades) | Hyponatremia (Grade 3) | Metastases to central nervous system (Grade 3) | Neutrophil count decreased (Grade 3) | Oedema peripheral (Grade 3) | Peripheral sensorimotor neuropathy [1] | Syncope [1] | Atelectasis [3] | Dyspnoea [3] | Hypoxia [3]
8 (11.8) no. (%): Hypoalbuminemia (All grades) | Hypokalemia (All grades) | Pleural effusion (All grades) | Anemia (Grade 3)
10 (14.7) no. (%): Asthenia (All grades) | Constipation (All grades) | Nausea (All grades)
4 (5.9) no. (%): Back pain (All grades) | Hyponatremia (All grades) | Asthenia (Grade 3) | Fatigue (Grade 3) | Pleural effusion [3]
6 (8.8) no. (%): Headache (All grades) | Neutrophil count decreased (All grades)
18 (26.5) no. (%): Fatigue (All grades)
9 (13.2) no. (%): Oedema peripheral (All grades) | Pyrexia (All grades)
23 (33.8) no. (%): Any adverse event (Grade 3)
19 (27.9) no. (%): Anemia (All grades) | Dyspnea (All grades)
61 (89.7) no. (%): Any adverse event (All grades)
5 (7.4) no. (%): White blood cell count decreased (Grade 3)
16 (23.5) no. (%): Any adverse event (Grade 4)
0 no. (%): Dermatitis (All grades) | Pruritus (All grades) | Skin irritation (All grades) | Acute myocardial infarction (Grade 3) | Adenocarcinoma of colon (Grade 3) | Arthralgia (Grade 3) | Ascites (Grade 3) | Aspergillus infection (Grade 3) | Autoimmune colitis (Grade 3) | Back pain (Grade 3) | Blood bilirubin increased (Grade 3) | Bronchiolitis (Grade 3) | Bronchitis (Grade 3) | C-reactive protein increased (Grade 3) | Cardiac failure congestive (Grade 3) | Cardiac tamponade (Grade 3) | Cardiac ventricular thrombosis (Grade 3) | Cataract (Grade 3) | Chest pain (Grade 3) | Cholecystitis (Grade 3) | Cholelithiasis (Grade 3) | Clostridium bacteremia (Grade 3) | Coronary artery disease (Grade 3) | Decreased appetite (Grade 3) | Diarrhea (Grade 3) | Diverticulitis (Grade 3) | Encephalitis (Grade 3) | Esophagitis (Grade 3) | Euthanasia (Grade 3) | Femoral neck fracture (Grade 3) | Gastroenteritis salmonella (Grade 3) | General physical health deterioration (Grade 3) | Hematochezia (Grade 3) | Hepatic enzyme increased (Grade 3) | Hip fracture (Grade 3) | Hypercalcemia (Grade 3) | Hyperkalaemia (Grade 3) | Hypertriglyceridaemia (Grade 3) | Hypocalcaemia (Grade 3) | Hypokalemia (Grade 3) | Infection (Grade 3) | Intestinal perforation (Grade 3) | Large intestine perforation (Grade 3) | Localized oedema (Grade 3) | Lung abscess (Grade 3) | Lymphocyte count decreased (Grade 3) | Lymphopenia (Grade 3) | Malnutrition (Grade 3) | Metastases to bone (Grade 3) | Metastases to meninges (Grade 3) | Metastases to skin (Grade 3) | Mouth ulceration (Grade 3) | Multiple organ dysfunction syndrome (Grade 3) | Myalgia (Grade 3) | Nausea (Grade 3) | Neuropathy peripheral (Grade 3) | Oral candidiasis (Grade 3) | Pancreatitis (Grade 3) | Pericardial effusion (Grade 3) | Platelet count decreased (Grade 3) | Pneumonia pseudomonal (Grade 3) | Pneumonia staphylococcal (Grade 3) | Pyelonephritis (Grade 3) | Pyrexia (Grade 3) | Respiratory tract infection (Grade 3) | Septic shock (Grade 3) | Skin infection (Grade 3) | Stomatitis (Grade 3) | Subileus (Grade 3) | Thrombocytopenia (Grade 3) | Thyroiditis subacute (Grade 3) | Tumor pain (Grade 3) | Upper respiratory tract infection (Grade 3) | Urinary tract infection (Grade 3) | Urosepsis (Grade 3) | Vomiting (Grade 3) | Weight decreased (Grade 3) | Brain oedema [1] | Cauda equina syndrome [1] | Dysarthria [1] | Embolic stroke [1] | Motor dysfunction [1] | Nervous system disorder [1] | Neurotoxicity [1] | Quadriparesis [1] | Seizure [1] | Vocal cord paralysis [1] | Anxiety (Grade 3, psychiatric disorders) | Confusional state (Grade 3, psychiatric disorders) | Mental status changes (Grade 3, psychiatric disorders) | Acute kidney injury [2] | Urinary retention [2] | Acute respiratory failure [3] | Bronchial obstruction [3] | Bronchopleural fistula [3] | Cough [3] | Esophago-bronchial fistula [3] | Interstitial lung disease [3] | Pneumonia aspiration [3] | Pulmonary hemorrhage [3] | Respiratory failure [3] | Dermatitis exfoliative [4] | Pruritus [4] | Rash [4] | Rash erythematous [4] | Rash maculopapular [4] | Skin erosion [4] | Skin reaction [4] | Skin toxicity [4] | Deep vein thrombosis (Grade 3, vascular disorders) | Embolism (Grade 3, vascular disorders) | Hypertension (Grade 3, vascular disorders) | Jugular vein thrombosis (Grade 3, vascular disorders) | Peripheral arterial occlusive disease (Grade 3, vascular disorders) | Vena cava embolism (Grade 3, vascular disorders) | Acute myocardial infarction (Grade 4) | Adenocarcinoma of colon (Grade 4) | Alanine aminotransferase increased (Grade 4) | Anemia (Grade 4) | Anemia macrocytic (Grade 4) | Arthralgia (Grade 4) | Ascites (Grade 4) | Aspergillus infection (Grade 4) | Asthenia (Grade 4) | Atrial tachycardia (Grade 4) | Autoimmune colitis (Grade 4) | Back pain (Grade 4) | Blood bilirubin increased (Grade 4) | Bone pain (Grade 4) | Bronchiolitis (Grade 4) | Bronchitis (Grade 4) | C-reactive protein increased (Grade 4) | Cancer pain (Grade 4) | Cardiac failure congestive (Grade 4) | Cardiac tamponade (Grade 4) | Cardiac ventricular thrombosis (Grade 4) | Cataract (Grade 4) | Chest pain (Grade 4) | Cholangitis (Grade 4) | Cholecystitis (Grade 4) | Cholelithiasis (Grade 4) | Clostridium bacteremia (Grade 4) | Coronary artery disease (Grade 4) | Decreased appetite (Grade 4) | Dehydration (Grade 4) | Diarrhea (Grade 4) | Diverticulitis (Grade 4) | Drug hypersensitivity (Grade 4) | Encephalitis (Grade 4) | Esophagitis (Grade 4) | Euthanasia (Grade 4) | Fatigue (Grade 4) | Febrile neutropenia (Grade 4) | Femoral neck fracture (Grade 4) | Forced expiratory volume decreased (Grade 4) | Gastroenteritis norovirus (Grade 4) | Gastroenteritis salmonella (Grade 4) | General physical health deterioration (Grade 4) | Hematochezia (Grade 4) | Hepatic enzyme increased (Grade 4) | Hip fracture (Grade 4) | Hypercalcemia (Grade 4) | Hyperglycemia (Grade 4) | Hyperkalaemia (Grade 4) | Hypertriglyceridaemia (Grade 4) | Hypoalbuminemia (Grade 4) | Hypocalcaemia (Grade 4) | Hypokalemia (Grade 4) | Hyponatremia (Grade 4) | Ileus (Grade 4) | Infection (Grade 4) | Intestinal dilatation (Grade 4) | Intestinal hemorrhage (Grade 4) | Intestinal perforation (Grade 4) | Large intestine perforation (Grade 4) | Leukopenia (Grade 4) | Liver disorder (Grade 4) | Localized oedema (Grade 4) | Lung abscess (Grade 4) | Lymphocyte count decreased (Grade 4) | Lymphopenia (Grade 4) | Malignant ascites (Grade 4) | Malignant pleural effusion (Grade 4) | Malnutrition (Grade 4)
7 (10.3) no. (%): Arthralgia (All grades) | Vomiting (All grades) | White blood cell count decreased (All grades) | Pneumonia (Grade 3)
22 (32.4) no. (%): Alopecia (All grades)
3 (4.4) no. (%): Rash maculopapular (All grades) | Febrile neutropenia (Grade 3) | Leukopenia (Grade 3)
